PMC7714403 (JCI Insight, 2020)
Where two headings read alike, the source gives them in different places.

Experiments:
Experiment in all cases: KiNativ, MOLM13 live cells
Assay type in all cases: cell-based
[1] = target: CaMK1a (Homo sapiens, UniProt Q14012); details: MOLM-13; 100 nM, 2 hours; Lys1; read-out: Inhibition vs DMSO
Description: (§1) Samples were analyzed by KiNativ in situ kinase profiling by ActivX Biosciences.

[2] = target: LKB1 (Homo sapiens, UniProt Q15831); details: MOLM-13; 100 nM, 2 hours; Lys2; read-out: Inhibition vs DMSO
Description: as §1

[3] = target: FAM20B (Homo sapiens, UniProt O75063); details: MOLM-13; 100 nM, 2 hours; ATP; read-out: Inhibition vs DMSO
Description: as §1

[4] = target: MAP4K3 (Homo sapiens, UniProt Q8IVH8); details: 100 nM, 2 hours; Lys2
Description: as §1

[5] = target: MST2 (Homo sapiens, UniProt Q13188); details: MOLM-13; 100 nM, 2 hours; Lys1; read-out: Inhibition vs DMSO
Description: as §1

[6] = target: RAF1 (Homo sapiens, UniProt P04049); details: MOLM-13; 100 nM, 2 hours; Lys2; read-out: Inhibition vs DMSO
Description: as §1

[7] = target: SLK (Homo sapiens, UniProt Q9H2G2); details: MOLM-13; 100 nM, 2 hours; Lys2; read-out: Inhibition vs DMSO
Description: as §1

[8] = target: MAP3K4 (Homo sapiens, UniProt Q9Y6R4); details: MOLM-13, 2 h, 100 nM
Description: as §1

[9] = target: GSK3A (Homo sapiens, UniProt P49840); details: MOLM-13; 100 nM, 2 hours; Lys2; read-out: Inhibition vs DMSO
Description: as §1

[10] = target: T1, STLK5 (Homo sapiens, UniProt Q7RTN6); details: MOLM-13, 2 h, 100 nM
T1 sequence (Q7RTN6 1-431): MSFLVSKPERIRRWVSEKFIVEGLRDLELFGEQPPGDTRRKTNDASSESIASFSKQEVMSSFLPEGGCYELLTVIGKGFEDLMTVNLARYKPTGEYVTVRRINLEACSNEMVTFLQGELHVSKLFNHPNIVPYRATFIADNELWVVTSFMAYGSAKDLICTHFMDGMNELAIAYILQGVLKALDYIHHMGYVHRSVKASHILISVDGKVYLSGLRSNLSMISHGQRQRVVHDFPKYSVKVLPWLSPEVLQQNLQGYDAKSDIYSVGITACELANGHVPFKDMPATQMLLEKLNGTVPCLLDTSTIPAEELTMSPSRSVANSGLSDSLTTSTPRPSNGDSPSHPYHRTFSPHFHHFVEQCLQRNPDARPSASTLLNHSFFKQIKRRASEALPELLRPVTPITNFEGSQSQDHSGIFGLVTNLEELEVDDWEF
Description: as §1

[11] = target: p38a (Homo sapiens, UniProt Q16539); details: 100 nM, 2 hours
Description: as §1

[12] = target: LOK (Homo sapiens, UniProt O94804); details: 100 nM, 2 hours
Description: as §1

[13] = target: PFTAIRE1 (Homo sapiens, UniProt O94921); details: 100 nM, 2 hours; Lys1
Description: as §1

[14] = target: BARK1 (Homo sapiens, UniProt P25098); details: MOLM-13; 100 nM, 2 hours; Lys2; read-out: Inhibition vs DMSO
Description: as §1

[15] = target: PEK (Homo sapiens, UniProt Q9NZJ5); details: 100 nM, 2 hours, Lys2, read-out: Inhibition vs DMSO
Description: as §1

[16] = target: GSK3B (Homo sapiens, UniProt P49841); details: MOLM-13; 100 nM, 2 hours; Lys2; read-out: Inhibition vs DMSO
Description: as §1

[17] = target: Erk2 (Homo sapiens, UniProt P28482); details: MOLM-13; 100 nM, 2 hours; Lys2; read-out: Inhibition vs DMSO
Description: as §1

[18] = target: PKN1 (Homo sapiens, UniProt Q16512); details: MOLM-13; 100 nM, 2 hours; Lys2; read-out: Inhibition vs DMSO
Description: as §1

[19] = target: PKR (Homo sapiens, UniProt P19525); details: 100 nM, 2 hours
Description: as §1

[20] = target: T2, MASTL (Homo sapiens, UniProt Q96GX5); details: 100 nM, 2 hours
T2 sequence (Q96GX5 1-879): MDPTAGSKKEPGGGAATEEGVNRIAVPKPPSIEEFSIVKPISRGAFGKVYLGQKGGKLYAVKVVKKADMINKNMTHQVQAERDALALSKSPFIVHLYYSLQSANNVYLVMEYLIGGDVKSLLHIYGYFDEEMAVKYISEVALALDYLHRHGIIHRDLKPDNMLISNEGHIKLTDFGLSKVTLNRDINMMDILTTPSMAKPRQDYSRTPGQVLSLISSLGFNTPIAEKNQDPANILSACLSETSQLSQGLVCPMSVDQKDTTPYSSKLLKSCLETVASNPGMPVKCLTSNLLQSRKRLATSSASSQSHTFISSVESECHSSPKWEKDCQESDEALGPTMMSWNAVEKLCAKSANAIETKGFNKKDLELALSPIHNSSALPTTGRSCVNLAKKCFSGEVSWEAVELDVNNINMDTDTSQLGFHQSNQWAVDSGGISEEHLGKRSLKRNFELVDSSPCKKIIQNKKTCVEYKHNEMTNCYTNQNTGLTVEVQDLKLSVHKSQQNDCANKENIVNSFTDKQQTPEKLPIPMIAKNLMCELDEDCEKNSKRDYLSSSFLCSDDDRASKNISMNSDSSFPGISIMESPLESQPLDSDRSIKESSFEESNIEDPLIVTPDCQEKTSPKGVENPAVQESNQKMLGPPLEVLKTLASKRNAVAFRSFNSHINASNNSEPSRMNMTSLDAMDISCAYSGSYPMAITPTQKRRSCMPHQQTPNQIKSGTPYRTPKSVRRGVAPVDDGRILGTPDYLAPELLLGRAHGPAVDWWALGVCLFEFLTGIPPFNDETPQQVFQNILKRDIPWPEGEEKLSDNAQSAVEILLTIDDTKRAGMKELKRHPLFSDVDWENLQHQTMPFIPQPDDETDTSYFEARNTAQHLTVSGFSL
Description: as §1

[21] = Lys2, read-out: Inhibition vs DMSO

PKR, sequence (P19525 whole entry): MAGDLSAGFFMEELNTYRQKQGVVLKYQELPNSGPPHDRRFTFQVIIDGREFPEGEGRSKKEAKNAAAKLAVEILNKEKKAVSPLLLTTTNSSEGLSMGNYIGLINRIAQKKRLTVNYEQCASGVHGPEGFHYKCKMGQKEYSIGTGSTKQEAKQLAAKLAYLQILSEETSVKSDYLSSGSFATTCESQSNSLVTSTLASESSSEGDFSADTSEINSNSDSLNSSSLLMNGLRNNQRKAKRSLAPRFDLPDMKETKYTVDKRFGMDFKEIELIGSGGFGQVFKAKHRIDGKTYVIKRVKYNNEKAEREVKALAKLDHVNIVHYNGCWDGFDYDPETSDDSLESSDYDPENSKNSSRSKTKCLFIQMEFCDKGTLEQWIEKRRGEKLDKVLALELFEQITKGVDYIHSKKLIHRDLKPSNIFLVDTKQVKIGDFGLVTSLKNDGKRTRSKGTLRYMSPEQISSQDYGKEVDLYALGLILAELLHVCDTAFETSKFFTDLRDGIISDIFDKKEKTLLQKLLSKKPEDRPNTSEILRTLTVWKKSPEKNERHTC
LOK, sequence (O94804 whole entry): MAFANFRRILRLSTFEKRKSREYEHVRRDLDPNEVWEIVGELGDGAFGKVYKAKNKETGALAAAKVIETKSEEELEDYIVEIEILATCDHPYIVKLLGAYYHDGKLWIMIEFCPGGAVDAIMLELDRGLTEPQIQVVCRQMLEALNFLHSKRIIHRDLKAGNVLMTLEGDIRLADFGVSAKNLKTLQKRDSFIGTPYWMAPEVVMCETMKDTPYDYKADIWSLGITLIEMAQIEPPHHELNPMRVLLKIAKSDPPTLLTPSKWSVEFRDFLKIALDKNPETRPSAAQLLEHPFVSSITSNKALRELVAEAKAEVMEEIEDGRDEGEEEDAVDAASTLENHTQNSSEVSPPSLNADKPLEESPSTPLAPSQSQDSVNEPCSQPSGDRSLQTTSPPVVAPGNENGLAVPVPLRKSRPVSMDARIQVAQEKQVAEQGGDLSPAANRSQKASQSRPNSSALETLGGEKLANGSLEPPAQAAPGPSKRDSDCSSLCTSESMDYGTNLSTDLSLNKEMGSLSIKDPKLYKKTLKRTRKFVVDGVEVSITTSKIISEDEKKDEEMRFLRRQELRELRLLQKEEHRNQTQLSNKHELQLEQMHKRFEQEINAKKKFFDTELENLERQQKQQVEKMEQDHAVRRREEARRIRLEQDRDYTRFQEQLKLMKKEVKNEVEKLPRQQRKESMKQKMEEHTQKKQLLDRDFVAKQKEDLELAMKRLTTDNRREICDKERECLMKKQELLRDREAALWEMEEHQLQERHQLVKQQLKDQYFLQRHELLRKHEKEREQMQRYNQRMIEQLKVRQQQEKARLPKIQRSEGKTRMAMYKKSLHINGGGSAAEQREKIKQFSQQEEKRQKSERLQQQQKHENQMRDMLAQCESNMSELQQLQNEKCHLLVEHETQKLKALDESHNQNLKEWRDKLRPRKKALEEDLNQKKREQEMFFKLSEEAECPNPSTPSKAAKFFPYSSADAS
p38a, sequence (Q16539 whole entry): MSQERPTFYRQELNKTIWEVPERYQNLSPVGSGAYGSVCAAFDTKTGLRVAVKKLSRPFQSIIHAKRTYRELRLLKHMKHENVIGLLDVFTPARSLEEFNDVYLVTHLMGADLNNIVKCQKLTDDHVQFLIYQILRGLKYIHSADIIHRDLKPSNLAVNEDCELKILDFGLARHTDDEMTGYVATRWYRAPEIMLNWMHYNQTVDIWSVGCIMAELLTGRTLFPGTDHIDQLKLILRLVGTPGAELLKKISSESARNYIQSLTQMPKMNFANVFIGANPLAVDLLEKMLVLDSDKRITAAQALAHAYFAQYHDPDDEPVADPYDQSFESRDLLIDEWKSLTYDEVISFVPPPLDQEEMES
MAP3K4, sequence (Q9Y6R4 whole entry): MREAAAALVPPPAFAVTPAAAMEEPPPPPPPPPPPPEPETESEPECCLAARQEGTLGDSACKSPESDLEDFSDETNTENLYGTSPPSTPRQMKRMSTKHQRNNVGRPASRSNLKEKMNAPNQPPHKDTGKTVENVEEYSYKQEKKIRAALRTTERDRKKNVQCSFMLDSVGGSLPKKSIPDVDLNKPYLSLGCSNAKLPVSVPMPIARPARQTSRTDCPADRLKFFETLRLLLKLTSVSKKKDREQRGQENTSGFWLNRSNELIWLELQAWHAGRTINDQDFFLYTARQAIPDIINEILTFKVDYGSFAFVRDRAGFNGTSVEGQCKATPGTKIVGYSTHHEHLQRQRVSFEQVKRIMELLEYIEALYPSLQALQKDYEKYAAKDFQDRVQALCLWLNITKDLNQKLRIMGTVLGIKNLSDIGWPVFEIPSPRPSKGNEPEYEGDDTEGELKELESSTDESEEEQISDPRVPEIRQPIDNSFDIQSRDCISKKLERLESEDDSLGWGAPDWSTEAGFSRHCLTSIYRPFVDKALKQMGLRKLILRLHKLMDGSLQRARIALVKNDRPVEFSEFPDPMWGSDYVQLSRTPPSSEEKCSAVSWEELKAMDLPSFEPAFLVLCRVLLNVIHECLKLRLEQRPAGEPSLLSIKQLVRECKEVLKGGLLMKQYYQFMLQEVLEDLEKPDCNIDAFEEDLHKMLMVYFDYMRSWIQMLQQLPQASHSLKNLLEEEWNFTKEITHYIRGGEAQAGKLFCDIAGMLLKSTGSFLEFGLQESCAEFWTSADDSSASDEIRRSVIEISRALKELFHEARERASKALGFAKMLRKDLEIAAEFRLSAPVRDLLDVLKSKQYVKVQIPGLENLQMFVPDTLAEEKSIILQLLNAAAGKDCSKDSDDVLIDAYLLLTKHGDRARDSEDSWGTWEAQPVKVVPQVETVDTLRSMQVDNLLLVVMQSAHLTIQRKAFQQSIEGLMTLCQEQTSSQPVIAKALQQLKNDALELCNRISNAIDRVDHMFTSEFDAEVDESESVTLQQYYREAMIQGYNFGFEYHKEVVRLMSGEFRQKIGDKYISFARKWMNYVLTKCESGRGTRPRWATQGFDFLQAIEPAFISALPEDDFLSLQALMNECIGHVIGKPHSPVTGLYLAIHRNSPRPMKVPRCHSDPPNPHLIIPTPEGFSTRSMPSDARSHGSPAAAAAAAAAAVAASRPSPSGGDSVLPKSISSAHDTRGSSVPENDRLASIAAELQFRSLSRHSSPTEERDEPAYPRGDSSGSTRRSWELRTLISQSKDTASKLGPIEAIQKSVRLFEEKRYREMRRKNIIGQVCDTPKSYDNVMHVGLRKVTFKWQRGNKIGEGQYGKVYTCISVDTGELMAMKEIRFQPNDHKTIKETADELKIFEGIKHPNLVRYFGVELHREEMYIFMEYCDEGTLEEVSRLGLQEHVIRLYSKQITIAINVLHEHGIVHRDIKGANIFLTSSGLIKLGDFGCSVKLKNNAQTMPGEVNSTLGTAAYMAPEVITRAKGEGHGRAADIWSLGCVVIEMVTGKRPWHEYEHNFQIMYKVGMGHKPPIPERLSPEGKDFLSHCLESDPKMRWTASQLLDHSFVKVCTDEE
SLK, sequence (Q9H2G2 whole entry): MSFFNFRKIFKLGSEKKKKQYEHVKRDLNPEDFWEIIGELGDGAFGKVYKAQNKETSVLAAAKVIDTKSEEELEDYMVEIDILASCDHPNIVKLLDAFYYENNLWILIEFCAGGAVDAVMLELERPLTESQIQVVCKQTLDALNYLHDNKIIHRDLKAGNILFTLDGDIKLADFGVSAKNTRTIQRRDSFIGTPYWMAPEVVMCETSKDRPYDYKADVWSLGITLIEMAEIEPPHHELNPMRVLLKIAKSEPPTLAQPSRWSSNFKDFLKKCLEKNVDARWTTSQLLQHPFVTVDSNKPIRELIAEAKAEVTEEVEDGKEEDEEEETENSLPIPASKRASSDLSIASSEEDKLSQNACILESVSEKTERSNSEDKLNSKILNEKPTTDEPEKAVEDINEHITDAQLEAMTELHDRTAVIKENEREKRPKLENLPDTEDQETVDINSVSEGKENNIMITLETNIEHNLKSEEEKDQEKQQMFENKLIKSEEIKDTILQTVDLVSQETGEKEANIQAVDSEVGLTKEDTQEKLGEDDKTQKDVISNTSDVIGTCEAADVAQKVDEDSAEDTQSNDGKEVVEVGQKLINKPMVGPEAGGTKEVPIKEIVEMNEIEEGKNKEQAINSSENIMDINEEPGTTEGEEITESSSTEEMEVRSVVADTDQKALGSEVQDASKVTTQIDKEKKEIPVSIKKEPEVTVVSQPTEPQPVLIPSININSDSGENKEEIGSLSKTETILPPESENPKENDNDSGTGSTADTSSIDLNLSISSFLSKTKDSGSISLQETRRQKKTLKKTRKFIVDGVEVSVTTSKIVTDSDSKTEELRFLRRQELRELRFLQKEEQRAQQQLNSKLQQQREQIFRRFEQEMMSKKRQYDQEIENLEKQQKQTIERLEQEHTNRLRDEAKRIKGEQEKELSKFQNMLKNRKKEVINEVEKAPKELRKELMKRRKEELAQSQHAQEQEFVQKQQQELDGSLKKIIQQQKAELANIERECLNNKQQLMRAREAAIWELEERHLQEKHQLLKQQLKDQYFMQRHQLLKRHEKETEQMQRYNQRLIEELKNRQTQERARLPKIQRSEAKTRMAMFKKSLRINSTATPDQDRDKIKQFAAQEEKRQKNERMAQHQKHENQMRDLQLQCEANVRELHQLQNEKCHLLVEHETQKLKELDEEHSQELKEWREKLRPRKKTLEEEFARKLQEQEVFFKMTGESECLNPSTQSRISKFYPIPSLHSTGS
CaMK1a, sequence (Q14012 whole entry): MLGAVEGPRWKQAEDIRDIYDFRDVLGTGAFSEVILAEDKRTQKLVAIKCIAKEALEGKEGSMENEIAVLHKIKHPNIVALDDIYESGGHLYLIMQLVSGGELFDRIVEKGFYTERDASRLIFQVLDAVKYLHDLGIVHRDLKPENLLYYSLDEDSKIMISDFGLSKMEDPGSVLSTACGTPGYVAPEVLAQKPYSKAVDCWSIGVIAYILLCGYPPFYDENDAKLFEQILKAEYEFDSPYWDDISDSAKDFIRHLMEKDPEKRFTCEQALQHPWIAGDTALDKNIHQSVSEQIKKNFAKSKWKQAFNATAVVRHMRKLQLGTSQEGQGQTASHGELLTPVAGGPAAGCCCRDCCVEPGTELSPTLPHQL

CN1CCN(Cc2ccc(Nc3ncc(Cl)c(Nc4ccccc4S(=O)(=O)N(C)C)n3)cc2)CC1 [TP-0903]
inhibition at 0.1 µM [1]: 1.3%
inhibition at 0.1 µM [2]: 18.2%
inhibition at 0.1 µM [3]: -5%
Inhibition vs DMSO [4]: 45.4%
inhibition at 0.1 µM [5]: 7.5%
inhibition at 0.1 µM [6]: 0.349%
inhibition at 0.1 µM [7]: 72.2%
inhibition at 0.1 µM ([8]; Lys1, read-out: Inhibition vs DMSO): 8.8%
inhibition at 0.1 µM [8, 21]: 6.6%
inhibition at 0.1 µM [9]: -8.9%
inhibition at 0.1 µM ([10]; Activation Loop, read-out: Inhibition vs DMSO): 4.2%
inhibition at 0.1 µM [10, 21]: -19%
Inhibition vs DMSO ([11]; Lys2): -1.9%
Inhibition vs DMSO ([11]; Other): 17.3%
Inhibition vs DMSO ([12]; Lys1): 56.8%
Inhibition vs DMSO ([12]; Lys2): 82.8%
Inhibition vs DMSO [13]: 29.5%
inhibition at 0.1 µM [14]: -13.9%
inhibition at 0.1 µM [15]: 1.7%
inhibition at 0.1 µM [16]: -11.3%
inhibition at 0.1 µM [17]: -9.4%
inhibition at 0.1 µM [18]: -25.2%
Inhibition vs DMSO ([19]; Activation Loop): -7.5%
Inhibition vs DMSO ([19]; Lys1): -21.9%
Inhibition vs DMSO ([19]; Lys2): -21.6%
Inhibition vs DMSO ([20]; ATP Loop): 10.4%
Inhibition vs DMSO ([20]; Lys1): -9.8%
